Measured values published in patent US11078193B2 (priority 2014, dated 2021).

Tests used:
Format in all cases: cell-based
[1] = Cytotoxicity, HepG2 cells, Resazurin assay; details: human
HBV [2] = assay: anti HBV activity, HepG2.117 inducibly HBV producing cell line (Tet-off), intracellular HBV DNA by realtime PCR; details: Hepatitis B virus, 72 h, HepG2.117 cells, 3 days of treatment
HBV [3] = assay: anti-HBV activity, HepG2.2.15 stable transfected cell line, HBV DNA from secreted virions by realtime PCR; details: Hepatitis B virus, 144 h, HepG2.2.15 cells, 6 days of treatment

Structure (SMILES) | CC50 at 4 days [1] | EC50 (HBV [2]) | EC50 (HBV [3])
C[C@@H](NS(=O)(=O)c1cn(C)c(C(=O)Nc2ccc(F)cn2)c1F)C(F)(F)F [Compound 28, 3-fluoro-N-(5-fluoro-2-pyridyl)-1-methyl-4-[[(1R)-2,2,2-trifluoro-1-methyl-ethyl]sulfamoyl]pyrrole-2-carboxamide] | > 25000 nM | 700 nM | 360 nM
C[C@@H](NS(=O)(=O)c1cn(C)c(C(=O)Nc2cnc(F)c(Br)c2)c1F)C(F)(F)F [Compound 29, N-(5-bromo-6-fluoro-3-pyridyl)-3-fluoro-1-methyl-4-[[(1R)-2,2,2-trifluoro-1-methyl-ethyl]sulfamoyl]pyrrole-2-carboxamide] | > 25000 nM | 60 nM | 40 nM
C[C@@H](NS(=O)(=O)c1cn(C)c(C(=O)Nc2cc(F)nc(F)c2)c1F)C(F)(F)F [Compound 30, N-(2,6-difluoro-4-pyridyl)-3-fluoro-1-methyl-4-[[(1R)-2,2,2-trifluoro-1-methyl-ethyl]sulfamoyl]pyrrole-2-carboxamide] | > 25000 nM | 10 nM | < 100 nM
CC[C@@H](NS(=O)(=O)c1cn(C)c(C(=O)Nc2ccnc(C#N)c2)c1F)C(F)(F)F [Compound 31, N-(2-cyano-4-pyridyl)-3-fluoro-1-methyl-4-[[(1R)-1-(trifluoromethyl)propyl]-sulfamoyl]pyrrole-2-carboxamide] | > 25000 nM | 40 nM | 30 nM
C[C@@H](NS(=O)(=O)c1cn(C)c(C(=O)Nc2ccnc(Cl)c2F)c1Cl)C(F)(F)F [Compound 33, 3-chloro-N-(2-chloro-3-fluoro-4-pyridyl)-1-methyl-4-[[(1R)-2,2,2-trifluoro-1-methyl-ethyl]sulfamoyl]pyrrole-2-carboxamide] | > 25000 nM | 10 nM | 8 nM
C[C@@H](NS(=O)(=O)c1cn(C)c(C(=O)Nc2cnc(F)c(Br)c2)c1Cl)C(F)(F)F [Compound 34, N-(5-bromo-6-fluoro-3-pyridyl)-3-chloro-1-methyl-4-[[(1R)-2,2,2-trifluoro-1-methyl-ethyl]sulfamoyl]pyrrole-2-carboxamide] | > 25000 nM | 100 nM | 50 nM
C[C@@H](NS(=O)(=O)c1cn(C)c(C(=O)Nc2cc(F)nc(F)c2)c1Cl)C(F)(F)F [Compound 35, 3-chloro-N-(2,6-difluoro-4-pyridyl)-1-methyl-4-[[(1R)-2,2,2-trifluoro-1-methyl-ethyl]sulfamoyl]pyrrole-2-carboxamide] | > 25000 nM | 10 nM | 5 nM
CC[C@H](NS(=O)(=O)c1cn(C)c(C(=O)Nc2ccnc(C#N)c2)c1Cl)C(F)(F)F [Compound 37, 3-chloro-N-(2-cyano-4-pyridyl)-1-methyl-4-[[(1S)-1-(trifluoromethyl)-propyl]sulfamoyl]pyrrole-2-carboxamide] | > 25000 nM | 200 nM | 150 nM
CC[C@@H](NS(=O)(=O)c1cn(C)c(C(=O)Nc2ccnc(C#N)c2)c1Cl)C(F)(F)F [Compound 38, 3-chloro-N-(2-cyano-4-pyridyl)-1-methyl-4-[[(1R)-1-(trifluoromethyl)propyl]-sulfamoyl]pyrrole-2-carboxamide] | > 25000 nM | 50 nM | 40 nM
Cn1cc(S(=O)(=O)NC2(C(F)(F)F)CC2)c(Cl)c1C(=O)Nc1ccnc(C#N)c1 [Compound 39, 3-chloro-N-(2-cyano-4-pyridyl)-1-methyl-4-[[1-(trifluoromethyl)cyclopropyl]-sulfamoyl]pyrrole-2-carboxamide] | > 25000 nM | 90 nM | 90 nM
CC[C@H](NS(=O)(=O)c1cc(C(=O)Nc2ccnc(C#N)c2)n(C)c1)C(F)(F)F [Compound 41, N-(2-cyano-4-pyridyl)-1-methyl-4-[[(1S)-1-(trifluoromethyl)propyl]-sulfamoyl]pyrrole-2-carboxamide] | > 25000 nM | 100 nM | 70 nM
